# Legend:
# Format in all cases: in vivo
# [1] = test system: SPF grade male C57BL/6J mice; experiment: Mouse open field test; conditions: 3.33 mg/kg by gavage daily for one month; 6 minutes; x ± SE
# Procedure: The test is performed in an open field box with a length of 50 cm, a width of 50 cm, and a depth of 50 cm. The bottom surface of the open field box is equally divided into 9 squares, the area right in the middle is a central area, and the remaining areas are peripheral areas. The bottom and four sides of the open field box are all white. The test is performed in a quiet and weak red light environment. […] The total movement distance of the mice, the movement distance in the central area and the number of standing-uprights are recorded.
# [2] = test system: SPF grade male C57BL/6J mice; experiment: Mouse forced swimming test (Embodiment 9); conditions: 3.33 mg/kg by gavage daily for one month, 5 minutes formal test, x ± SE
# Procedure: (§1) 72 SPF grade male C57BL/6J mice which are 20±2 g in weight are selected. 6 mice are kept in each cage, free to forage and drink, and kept in a room with controlled light, temperature and humidity: the temperature is 21° C.±2° C., the humidity is 50%±10%, and the light and dark cycle is 12 hours/12 hours (light on at 20:00, light off at 8:00). All animal experiments are carried out in accordance with the guidelines on laboratory animal welfare and use issued by NIH.
# (§2) After arrival, the mice are allowed to acclimate for one week before entering experiments.
# (§3) The mice in the normal group are given the same volume of purified water by gavage, and the gavage doses for the mice in other groups are shown in the result tables. The mice are treated by gavage at a fixed time (9:00) every morning with a gavage volume of 0.1 mL·10 g^−1, and the administration is lasted for one month. A behavioral test is performed 1 hour after the last gavage.
# When forced to swim, all the animals are respectively put in a plexiglass cylinder with a water temperature of 23° C.±1° C. and a water depth of 20 cm. After 15 minutes, the animals are transferred to a dry environment with a temperature of 30° C. and kept for 30 minutes (pretest). After 24 hours, the mice are put into the plexiglass cylinder again and kept for 5 minutes (formal test). A video camera is used during the test for recording. […]
# [3] = test system: SPF grade male C57BL/6J mice; experiment: Mouse tail suspension test; conditions: 3.33 mg/kg by gavage daily for one month, last 4 minutes of 6 minutes, x ± SE
# Procedure: as §1, §2, §3
# In the tail suspension test, medical tape is used to suspend each mouse at ⅓ of the tail tip on a tail suspension device. The mice are suspended vertically with the heads facing camera lens, and are about 30 cm above the ground. The immobility time of each group of mice in the tail suspension test is recorded by a video camera for 6 minutes, and the tail suspension immobility time of the mice is calculated according to the last 4 minutes. […]
compound,measurement,setting,value
"CNCCC(Oc1ccc(C(F)(F)F)cc1)c1ccccc1 (stereo not drawn) [Fluoxetine, fluoxetine]",Number of standing-uprights,[1],29.20 ± 2.133
same,Total movement distance,[1],18435 ± 950.6 mm
same,Number of floating immobilities,[2],54.64 ± 2.704
same,Number of floating immobilities,[2]; listed as fluoxetine,significantly lower
same,Tail suspension immobility time,[3],59.62 ± 6.270 s
same,Tail suspension immobility time,[3]; listed as fluoxetine,significantly shorter

# Reference: patent US11642388B2, “Antidepressant compound preparation and preparation method thereof” (Chenland Nutritionals Inc., priority 2020, dated 2023)
